Drawing on PMC8946696, “27-Hydroxycholesterol Binds GPER and Induces Progression of Estrogen Receptor-Negative Breast Cancer” (Cancers, 2022), this text covers IC50 for 1 compound.

This assay deals with T1, G Protein-Coupled Estrogen Receptor (GPER, GPR30) (Homo sapiens, UniProt Q99527).
T1 construct: gene GPER1; plasma membranes of HEK293 cells stably transfected with GPER
The assay can be described thus: [3H]E2 competitive radioligand binding to plasma membranes of GPER-transfected HEK293 cells.

T1 sequence (Q99527 whole entry): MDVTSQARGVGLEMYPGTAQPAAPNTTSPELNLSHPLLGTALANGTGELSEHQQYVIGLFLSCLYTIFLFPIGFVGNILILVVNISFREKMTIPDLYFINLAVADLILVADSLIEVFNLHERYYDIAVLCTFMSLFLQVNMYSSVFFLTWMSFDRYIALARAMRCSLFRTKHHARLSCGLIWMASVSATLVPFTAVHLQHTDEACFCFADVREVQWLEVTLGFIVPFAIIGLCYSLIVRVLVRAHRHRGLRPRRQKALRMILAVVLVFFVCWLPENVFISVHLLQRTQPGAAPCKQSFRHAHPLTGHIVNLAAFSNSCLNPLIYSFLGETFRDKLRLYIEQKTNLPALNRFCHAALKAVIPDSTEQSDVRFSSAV

`C[C@@H](CO)CCC[C@@H](C)[C@H]1CC[C@H]2[C@@H]3CC=C4C[C@@H](O)CC[C@]4(C)[C@H]3CC[C@]12C` [27HC, 27-hydroxycholesterol] gave an IC50 of 500 to 800 nM.

As usually defined, the IC50 is the concentration that inhibits the measured activity by half. Read a low IC50 as greater potency in that assay.
